“And” between values parts separate entries of the source, which are not always exact repeats. Identical values can stand only once.
Tested on: bleomycin induced pulmonary fibrosis
Assay: Bleomycin induced pulmonary fibrosis in mice, nebulized treatment: body weight, weight of whole lung, survival
Assay type: in vivo
Settings: for Predicted (LS) mean diff., % Change Body Weight, Group 2 Bleo/Veh vs. BETi1 group: Two Way ANOVA; for Predicted (LS) mean diff., % Change Body Weight, Group 2 Bleo/Veh vs. BETi1 group / Mean Diff., Weight of Whole lung, Group 2 Bleo/Veh vs. BETi1 group / Mean Diff., % Change Body Weight, Group 2 Bleo/Veh vs. BETi1 group: Dunnett's; for Mean Diff., Weight of Whole lung, Group 2 Bleo/Veh vs. BETi1 group / Mean Diff., % Change Body Weight, Group 2 Bleo/Veh vs. BETi1 group: One Way ANOVA; for % change in Body Weight Week 1 Compared to Baseline, mean / % change in Body Weight week 2 Compared to Baseline, mean / % change in Body Weight week 3 Compared to Baseline, Mean: group mean; for % change in Body Weight Week 1 Compared to Baseline / % change in Body Weight week 2 Compared to Baseline / % change in Body Weight week 3 Compared to Baseline: individual animals
Method: Bleomycin, a […], which acts inter alia by induction of DNA strand breaks.
The Bleomycin induced pulmonary fibrosis in a murine model is used to assess anti-fibrotic and/or anti-inflammatory properties of BETi1 formulations at three concentrations. Fifty C57BL/6 male mice aged 6 to 7 weeks and weighing between 25-30 grams are randomized into five treatment groups (10 mice each): (a) bleomycin induced mice treated with BETi1 at three concentrations (0.06 mg/mL, 0.6 mg/mL and 3 mg/mL); (b) bleomycin induced mice treated with vehicle (control for active) and (c) uninduced mice treated with vehicle (sham) (control for disease).
To generate the morphological and functional aspects of PF, 50 uL bleomycin sulfate in saline per mouse is intranasally dosed on Day 0 (other than for group 1 sham receiving saline). The bleomycin IU conversion to enzyme units (U) is approximately 2 U/mg. For delivery of 4 U/kg in 50 μL, a solution of 2 U/ml (for 25 g mouse) is prepared in 0.9% NaCl.
5 ml of BETi1 solutions at 3 doses, or vehicle and bleomycin concomitantly are delivered once daily for 21 days with a nebulizer based aerosol delivery system (eFlow® rapid Nebuliser System) by inhalation for a period which allows the solutions to be nebulized and up to 2 hours per day. A sham group receives vehicle only. Body weights are recorded on days 1, 7, 14, and 21. Mortality and clinical observations are recorded daily.
On day 21, mice are euthanized by cervical dislocation and the whole lung is dissected and weighed. The chest is wet with alcohol and large scissors are used to open the ribcage. The lungs are removed with fine scissors and forceps, rinsed with PBS and patted dry on gauze.
Investigation of the anti-fibrotic properties of BETi1 composition against TGF-β mediated fibrosis was undertaken in a bleomycin induced murine model mimicking IPF in accordance with the protocol set out in Experimental Method R.

[1] = Week 1, Group 3 Bleo/BETi1 0.06 mg/mL
[2] = Week 1, Group 4 Bleo/BETi1 0.6 mg/mL
[3] = Week 1, Group 5 Bleo/BETi1 3 mg/mL
[4] = Week 2, Group 3 Bleo/BETi1 0.06 mg/mL
[5] = Week 2, Group 4 Bleo/BETi1 0.6 mg/mL
[6] = Week 2, Group 5 Bleo/BETi1 3 mg/mL
[7] = Week 3, Group 3 Bleo/BETi1 0.06 mg/mL
[8] = Week 3, Group 4 Bleo/BETi1 0.6 mg/mL
[9] = Week 3, Group 5 Bleo/BETi1 3 mg/mL

Cn1cc(-c2cccc(O)c2Oc2ccccc2)c2cc[nH]c2c1=O [BETi1]
whole lung weight (0.06 mg/mL and 0.6 mg/mL, vs bleomycin and vehicle): slight decrease in lung weight | Probability of Survival (0.06 mg/mL inhaled, until day 20): 50% | Probability of Survival (0.6 mg/mL inhaled, until day 20): 81.3% | Probability of Survival (3 mg/mL inhaled, until day 20): 76.5% | Predicted (LS) mean diff., % Change Body Weight, Group 2 Bleo/Veh vs. BETi1 group (Baseline, Group 3 Bleo/BETi1 0.06 mg/mL): 0.0875% | Predicted (LS) mean diff., % Change Body Weight, Group 2 Bleo/Veh vs. BETi1 group (Baseline, Group 4 Bleo/BETi1 0.6 mg/mL): 0.1750% | Predicted (LS) mean diff., % Change Body Weight, Group 2 Bleo/Veh vs. BETi1 group (Baseline, Group 5 Bleo/BETi1 3 mg/mL): 0.1629% | Mean 2 (group mean), Weight of Whole lung (Group 3 Bleo/BETi1 0.06 mg/mL): 0.2695 | Weight of Whole lung, Mean (Group 3 Bleo/BETi1 0.06 mg/mL): 0.27 grams | Weight of Whole lung, individual animals (Group 3 Bleo/BETi1 0.06 mg/mL): 0.32 grams and 0.28 grams and 0.25 grams and 0.27 grams (3×) and 0.30 grams and 0.19 grams | Probability of Survival (Group 3 Bleo/BETi1 0.06 mg/mL, Day Elapsed 0): 100% | Probability of Survival (Group 3 Bleo/BETi1 0.06 mg/mL, Day Elapsed 8): 93.75% | Probability of Survival (Group 3 Bleo/BETi1 0.06 mg/mL, Day Elapsed 9): 81.25% | Probability of Survival (Group 3 Bleo/BETi1 0.06 mg/mL, Day Elapsed 10): 75% | Probability of Survival (Group 3 Bleo/BETi1 0.06 mg/mL, Day Elapsed 12): 68.75% | Probability of Survival (Group 3 Bleo/BETi1 0.06 mg/mL, Day Elapsed 14): 62.5% | Probability of Survival (Group 3 Bleo/BETi1 0.06 mg/mL, Day Elapsed 18): 56.25% | Probability of Survival (Group 3 Bleo/BETi1 0.06 mg/mL, Day Elapsed 19): 50% | Probability of Survival (Group 3 Bleo/BETi1 0.06 mg/mL, Day Elapsed 20): 50% | Mean Diff., Weight of Whole lung, Group 2 Bleo/Veh vs. BETi1 group (Group 3 Bleo/BETi1 0.06 mg/mL): 0.01712 | % change in Body Weight Week 1 Compared to Baseline, mean (Group 3 Bleo/BETi1 0.06 mg/mL): −22.10% | % change in Body Weight week 2 Compared to Baseline, mean (Group 3 Bleo/BETi1 0.06 mg/mL): −19.98% | % change in Body Weight week 3 Compared to Baseline, Mean (Group 3 Bleo/BETi1 0.06 mg/mL): −8.83% | % change in Body Weight Week 1 Compared to Baseline (Group 3 Bleo/BETi1 0.06 mg/mL): −37.04% and −20.00% and −39.32% and −11.86% and −37.37% and −3.83% and −26.78% and −31.75% and −37.30% and −38.92% and −35.61% and −25.13% and −14.61% and −18.53% and −13.95% and −12.29% | % change in Body Weight week 2 Compared to Baseline (Group 3 Bleo/BETi1 0.06 mg/mL): −39.35% and −15.35% and −47.44% and −1.27% and −1.28% and −37.16% and −39.04% and −8.22% and −19.83% and −3.26% and −7.63% | % change in Body Weight week 3 Compared to Baseline (Group 3 Bleo/BETi1 0.06 mg/mL): −37.04% and −9.77% and −0.85% and −2.13% and −5.02% and −14.22% and 0.93% and −2.54% | Mean 2 (group mean), Weight of Whole lung (Group 4 Bleo/BETi1 0.6 mg/mL): 0.2681 | Weight of Whole lung, Mean (Group 4 Bleo/BETi1 0.6 mg/mL): 0.27 grams | Weight of Whole lung, individual animals (Group 4 Bleo/BETi1 0.6 mg/mL): 0.13 grams and 0.31 grams and 0.29 grams and 0.32 grams and 0.37 grams and 0.27 grams and 0.20 grams (2×) and 0.33 grams and 0.34 grams (2×) and 0.18 grams and 0.21 grams | Probability of Survival (Group 4 Bleo/BETi1 0.6 mg/mL, Day Elapsed 0): 100% | Probability of Survival (Group 4 Bleo/BETi1 0.6 mg/mL, Day Elapsed 10): 87.5% | Probability of Survival (Group 4 Bleo/BETi1 0.6 mg/mL, Day Elapsed 19): 81.3% | Probability of Survival (Group 4 Bleo/BETi1 0.6 mg/mL, Day Elapsed 20): 81.3% | Mean Diff., Weight of Whole lung, Group 2 Bleo/Veh vs. BETi1 group (Group 4 Bleo/BETi1 0.6 mg/mL): 0.01849 | % change in Body Weight Week 1 Compared to Baseline, mean (Group 4 Bleo/BETi1 0.6 mg/mL): −21.76% | % change in Body Weight week 2 Compared to Baseline, mean (Group 4 Bleo/BETi1 0.6 mg/mL): −17.12% | % change in Body Weight week 3 Compared to Baseline, Mean (Group 4 Bleo/BETi1 0.6 mg/mL): −13.58% | % change in Body Weight Week 1 Compared to Baseline (Group 4 Bleo/BETi1 0.6 mg/mL): −10.00% and −30.77% and −22.17% and −31.64% and −20.93% and −27.01% and −24.89% and −31.19% and −5.26% and −14.75% and −23.22% and −25.78% and −4.72% and −10.36% and −31.41% and −8.41% | % change in Body Weight week 2 Compared to Baseline (Group 4 Bleo/BETi1 0.6 mg/mL): −8.00% and −33.52% and −16.04% and −27.44% and −32.70% and −21.78% and 0.96% and −18.89% and −16.11% and −23.11% and −0.47% and −0.90% and −39.27% and −2.34% | % change in Body Weight week 3 Compared to Baseline (Group 4 Bleo/BETi1 0.6 mg/mL): −7.50% and −34.62% and −7.55% and −27.91% and −34.12% and −12.89% and 2.39% and −6.45% and −14.69% and −19.56% and −3.30% and −9.91% and −0.47% | Mean 2 (group mean), Weight of Whole lung (Group 5 Bleo/BETi1 3 mg/mL): 0.2847 | Weight of Whole lung, Mean (Group 5 Bleo/BETi1 3 mg/mL): 0.28 grams | Weight of Whole lung, individual animals (Group 5 Bleo/BETi1 3 mg/mL): 0.31 grams (2×) and 0.33 grams (2×) and 0.30 grams (2×) and 0.23 grams and 0.27 grams and 0.29 grams and 0.34 grams and 0.28 grams and 0.21 grams and 0.22 grams | Probability of Survival (Group 5 Bleo/BETi1 3 mg/mL, Day Elapsed 0): 100% | Probability of Survival (Group 5 Bleo/BETi1 3 mg/mL, Day Elapsed 12): 88.24% | Probability of Survival (Group 5 Bleo/BETi1 3 mg/mL, Day Elapsed 19): 76.5% | Probability of Survival (Group 5 Bleo/BETi1 3 mg/mL, Day Elapsed 20): 76.5% | Mean Diff., Weight of Whole lung, Group 2 Bleo/Veh vs. BETi1 group (Group 5 Bleo/BETi1 3 mg/mL): 0.001901 | % change in Body Weight Week 1 Compared to Baseline, mean (Group 5 Bleo/BETi1 3 mg/mL): −19.36% | % change in Body Weight week 2 Compared to Baseline, mean (Group 5 Bleo/BETi1 3 mg/mL): −20.64% | % change in Body Weight week 3 Compared to Baseline, Mean (Group 5 Bleo/BETi1 3 mg/mL): −16.74% | % change in Body Weight Week 1 Compared to Baseline (Group 5 Bleo/BETi1 3 mg/mL): −26.87% and −23.22% and −36.71% and −15.25% and −13.81% and −12.78% and −17.30% and −34.80% and −28.32% and −27.55% and −24.87% and −34.38% and −26.99% and −11.63% and −10.16% and −15.64% and −21.86% | % change in Body Weight week 2 Compared to Baseline (Group 5 Bleo/BETi1 3 mg/mL): −11.45% and −36.97% and −40.10% and −20.18% and 1.43% and −7.05% and −22.16% and −38.24% and −34.07% and −20.81% and −42.92% and −8.37% and −1.07% and −7.11% and −20.47% | % change in Body Weight week 3 Compared to Baseline (Group 5 Bleo/BETi1 3 mg/mL): −5.73% and −37.44% and −21.52% and 1.90% and −7.05% and −24.32% and −46.08% and −37.17% and −17.26% and −3.26% and 2.67% and −4.27% and −18.14% | Mean 2 (group mean), % Change Body Weight [1]: −25.27% | Mean Diff., % Change Body Weight, Group 2 Bleo/Veh vs. BETi1 group [1]: 3.162% | Predicted (LS) mean diff., % Change Body Weight, Group 2 Bleo/Veh vs. BETi1 group [1]: −0.2812% | Mean 2 (group mean), % Change Body Weight [2]: −20.16% | Mean Diff., % Change Body Weight, Group 2 Bleo/Veh vs. BETi1 group [2]: −1.950% | Predicted (LS) mean diff., % Change Body Weight, Group 2 Bleo/Veh vs. BETi1 group [2]: 0.1375% | Mean 2 (group mean), % Change Body Weight [3]: −22.48% | Mean Diff., % Change Body Weight, Group 2 Bleo/Veh vs. BETi1 group [3]: 0.3723% | Predicted (LS) mean diff., % Change Body Weight, Group 2 Bleo/Veh vs. BETi1 group [3]: −0.2048% | Mean 2 (group mean), % Change Body Weight [4]: −19.98% | Mean Diff., % Change Body Weight, Group 2 Bleo/Veh vs. BETi1 group [4]: 1.135% | Predicted (LS) mean diff., % Change Body Weight, Group 2 Bleo/Veh vs. BETi1 group [4]: 0.3375% | Mean 2 (group mean), % Change Body Weight [5]: −17.12% | Mean Diff., % Change Body Weight, Group 2 Bleo/Veh vs. BETi1 group [5]: −1.732% | Predicted (LS) mean diff., % Change Body Weight, Group 2 Bleo/Veh vs. BETi1 group [5]: −0.3438% | Mean 2 (group mean), % Change Body Weight [6]: −20.64% | Mean Diff., % Change Body Weight, Group 2 Bleo/Veh vs. BETi1 group [6]: 1.788% | Predicted (LS) mean diff., % Change Body Weight, Group 2 Bleo/Veh vs. BETi1 group [6]: −0.05257% | Mean 2 (group mean), % Change Body Weight [7]: −8.830% | Mean Diff., % Change Body Weight, Group 2 Bleo/Veh vs. BETi1 group [7]: −4.313% | Predicted (LS) mean diff., % Change Body Weight, Group 2 Bleo/Veh vs. BETi1 group [7]: −2.409% | Mean 2 (group mean), % Change Body Weight [8]: −13.58% | Mean Diff., % Change Body Weight, Group 2 Bleo/Veh vs. BETi1 group [8]: 0.4395% | Predicted (LS) mean diff., % Change Body Weight, Group 2 Bleo/Veh vs. BETi1 group [8]: −0.1629% | Mean 2 (group mean), % Change Body Weight [9]: −16.74% | Mean Diff., % Change Body Weight, Group 2 Bleo/Veh vs. BETi1 group [9]: 3.600% | Predicted (LS) mean diff., % Change Body Weight, Group 2 Bleo/Veh vs. BETi1 group [9]: 0.6601%

Reference: patent publication US20250339409A1, “USES OF PAN BET INHIBITORS” (VYNE THERAPEUTICS INC., priority 2021, published 2025)
